Laboratory results published in the NIST ThermoML archive (doi:10.1016/j.jct.2016.11.024).
Numbers after ± are expanded uncertainties.

Settings: Liquid, Ebulliometric method (Recirculating still)

| Structure (SMILES) | vapor or sublimation pressure (356.53 K) | vapor or sublimation pressure (380.5 K) | vapor or sublimation pressure (391.77 K) | vapor or sublimation pressure (389.1 K) | vapor or sublimation pressure (412.93 K) | vapor or sublimation pressure (424.43 K) |
| --- | --- | --- | --- | --- | --- | --- |
| CCCCCCCC(=O)OC [methyl octanoate] | 2 ± 0.2 kPa | 6 ± 0.61 kPa | 10 ± 1 kPa | – | – | – |
| CCCCCCCCCC(=O)OC [methyl decanoate] | – | – | – | 2 ± 0.2 kPa | 6 ± 0.61 kPa | 10 ± 1 kPa |
